Results on four compounds are retold here after PMC12959348 (Angewandte Chemie (International ed. in English), 2025).

Assay [1] addresses T1, cereblon (CRBN) (Homo sapiens, UniProt Q96SW2).
T1 construct: Eu3+-cryptate-labeled CRBN
In words: TR-FRET displacement of thalidomide-red from Eu3+-cryptate-labeled CRBN. Format: binding. The source says: TR-FRET displacement of thalidomide-red from Eu3+-cryptate-labeled CRBN on cereblon (CRBN) | displacement of thalidomide-red and binding of 1a and 2a to CRBN.
(In general: In TR-FRET formats the signal depends on donor and acceptor labels being close together.)

Assay [2] concerns telo24 (DNA, G4) TTAGGGTTAGGGTTAGGGTTAGGG
Nature of the assay: fluorescence polarization (intrinsic pomalidomide fluorescence). As to conditions: 100 mM KCl; 10 mM Li-cacodylate, pH 7.4; ligand 0.2 µM; fit assumes two sites per G4; per site.

The test system of assay [3] is NRAS (RNA, G4) UGUGGGAGGGGCGGGUCUGGGUGC
The description is as above. As to conditions: 100 mM KCl; 10 mM Li-cacodylate, pH 7.4; ligand 0.2 µM; fit assumes two sites per G4; per site.

Assay [4] has as its system ssDNA (DNA, single strand) CCCTAACCCTAACCCTAACCCTAA
The assay is described as above. As to conditions: 100 mM KCl; 10 mM Li-cacodylate, pH 7.4; ligand 0.2 µM; per site.

Assay [5] deals with dsDNA (DNA, hairpin) TATAGCTATATTTTTTTATAGCTATA
Described as above. As to conditions: 100 mM KCl; 10 mM Li-cacodylate, pH 7.4; ligand 0.2 µM; per site.

Assay [6] concerns bcl2 (DNA, G4) GGGCGCGGGAGGAATTGGGCGGG
The assay is described as above. As to conditions: 100 mM KCl; 10 mM Li-cacodylate, pH 7.4; ligand 0.2 µM; fit assumes two sites per G4; per site.

In assay [7] the test system is VEGFR (DNA, G4) GGGTACCCGGGTGAGGTGCGGGGT
The assay is described as above. As to conditions: 100 mM KCl; 10 mM Li-cacodylate, pH 7.4; ligand 0.2 µM; fit assumes two sites per G4; per site.

Assay [8] concerns PARP1 (DNA, G4) TGGGGTCCGAGGCGGGGCTTGGG
The description is as above. As to conditions: 100 mM KCl; 10 mM Li-cacodylate, pH 7.4; ligand 0.2 µM; fit assumes two sites per G4; per site.

The test system of assay [9] is 19wt (DNA, G4) GGGGGAGGGGTACAGGGGTACAGGGG
The assay is described as above. As to conditions: 100 mM KCl; 10 mM Li-cacodylate, pH 7.4; ligand 0.2 µM; fit assumes two sites per G4; per site.

Assay [10] has as its system c-kit1 (DNA, G4) AGGGAGGGCGCTGGGAGGAGGG
Described as above. As to conditions: 100 mM KCl; 10 mM Li-cacodylate, pH 7.4; ligand 0.2 µM; fit assumes two sites per G4; per site.

The test system of assay [11] is VEGF (DNA, G4) CGGGGCGGGCCTTGGGCGGGGT
Described as above. As to conditions: 100 mM KCl; 10 mM Li-cacodylate, pH 7.4; ligand 0.2 µM; fit assumes two sites per G4; per site.

Assay [12] relates to KRAS (DNA, G4) AGGGCGGTGTGGGAATAGGGAA
The description is as above. As to conditions: 100 mM KCl; 10 mM Li-cacodylate, pH 7.4; ligand 0.2 µM; fit assumes two sites per G4; per site.

Assay [13] concerns TERRA (RNA, G4) UAAGGGUAAGGGUAAGGGUAAGGG
The assay is described as above. As to conditions: 100 mM KCl; 10 mM Li-cacodylate, pH 7.4; ligand 0.2 µM; fit assumes two sites per G4; per site.

Assay [14] deals with bcl2 (DNA, G4) GGGCGCGGGAGGAATTGGGCGGG
In words: fluorescence polarization (pomalidomide fluorescence). As to conditions: 100 mM K+ (KCl), 10 mM Li-cacodylate, pH 7.4, ligand 0.2 µM, per binding site (two sites per G4). (In general: Fluorescence polarisation rises when a labelled molecule tumbles more slowly, as on binding a larger partner.)

For assay [15], the system named is TERRA (RNA, G4) UAAGGGUAAGGGUAAGGGUAAGGG
Described as above. As to conditions: 100 mM K+ (KCl), 10 mM Li-cacodylate, pH 7.4, ligand 0.2 µM, per binding site (two sites per G4).

T1 sequence (Q96SW2 whole entry): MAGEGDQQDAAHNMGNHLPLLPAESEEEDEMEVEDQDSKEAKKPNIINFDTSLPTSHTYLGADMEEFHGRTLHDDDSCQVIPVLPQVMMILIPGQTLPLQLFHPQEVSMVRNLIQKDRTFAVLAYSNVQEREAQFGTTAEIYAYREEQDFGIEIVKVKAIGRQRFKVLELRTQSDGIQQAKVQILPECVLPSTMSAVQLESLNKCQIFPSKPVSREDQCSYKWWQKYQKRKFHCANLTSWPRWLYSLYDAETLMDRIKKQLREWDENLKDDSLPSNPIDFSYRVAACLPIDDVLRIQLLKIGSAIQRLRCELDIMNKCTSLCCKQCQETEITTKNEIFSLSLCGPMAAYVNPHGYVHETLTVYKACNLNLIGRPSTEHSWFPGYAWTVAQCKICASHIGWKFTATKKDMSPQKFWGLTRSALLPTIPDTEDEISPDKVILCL

In the case of `Cc1oc2nc1-c1nc(c(CCCNC(=O)CNc3cccc4c3C(=O)N(C3CCC(=O)NC3=O)C4=O)o1)-c1nc(co1)C(=O)N[C@@H](CCCCN)c1nc(co1)-c1nc(co1)-c1nc(co1)C(=O)N[C@H]2CCCCN` (some centres unmarked) [1a], the concentration for half-maximal inhibition (IC50) (usually the concentration at which inhibition is half-maximal) in [1] was determined as 61 nM. Moreover, the Kd – broadly, a measure of binding affinity in units of concentration – is listed as 108 ± 75 nM in [2]; 65 ± 2 nM in assay [3]; more than 1200 nM in assay [4]; more than 1200 nM in assay [5]; 30 ± 13 nM in assay [6]; 27 ± 5 nM in assay [7]. Also, the dissociation constant Kd in assay [8] stood at 42 ± 40 nM; in [9] it was 103 ± 27 nM; in [10], 39 ± 23 nM; in assay [11], 42 ± 38 nM; in assay [12], 45 ± 35 nM; in [13] it was 72 ± 39 nM.

For `Cc1oc2nc1-c1nc(c(CCCNC(=O)CCOCCOCCOCCOCCNc3cccc4c3C(=O)N(C3CCC(=O)N(C)C3=O)C4=O)o1)-c1nc(co1)C(=O)N[C@@H](CCCCN)c1nc(co1)-c1nc(co1)-c1nc(co1)C(=O)N[C@H]2CCCCN` (some centres unmarked), the dissociation constant (Kd) is 278 ± 258 nM in assay [14]; 110 ± 115 nM in assay [15]; 155 ± 29 nM in assay [2]; 96 ± 28 nM in assay [3]; more than 1200 nM in assay [4]; more than 1200 nM in [5].

On to `Cc1oc2nc1-c1nc(c(CCCNC(=O)CNc3cccc4c3C(=O)N(C3CCC(=O)N(C)C3=O)C4=O)o1)-c1nc(co1)C(=O)N[C@@H](CCCCN)c1nc(co1)-c1nc(co1)-c1nc(co1)C(=O)N[C@H]2CCCCN` (some centres unmarked), for which the equilibrium dissociation constant (Kd) was 33 ± 17 nM in assay [2]; 10 ± 5 nM in assay [3]; more than 1200 nM in [4]; more than 1200 nM in assay [5]; 104 ± 53 nM in [6]; 46 ± 18 nM in [7]. Besides, the Kd came out at 39 ± 16 nM in [8]; 289 ± 184 nM in assay [9]; 38 ± 41 nM in [10]; 4 ± 3 nM in assay [11]; 19 ± 14 nM in [12]; 26 ± 22 nM in assay [13].

In the case of `Cc1oc2nc1-c1nc(c(CCCNC(=O)CCOCCOCCOCCOCCNc3cccc4c3C(=O)N(C3CCC(=O)NC3=O)C4=O)o1)-c1nc(co1)C(=O)N[C@@H](CCCCN)c1nc(co1)-c1nc(co1)-c1nc(co1)C(=O)N[C@H]2CCCCN` (some centres unmarked) [2a], the IC50 in assay [1] amounted to 90 nM. In addition, the dissociation constant (Kd) in assay [2] is 356 ± 210 nM; in [3], 68 ± 56 nM; in assay [4], more than 1200 nM; in [5] it was more than 1200 nM; in assay [6], 266 ± 178 nM; in [7], 802 ± 325 nM. The dissociation constant (Kd) in assay [8] was found to be 817 ± 447 nM; in assay [9], 3402 ± 436 nM; in [10], 178 ± 22 nM; in assay [11] it was 46 ± 23 nM; in assay [12] it was 103 ± 45 nM; in [13], 5 ± 4 nM.
